Test results published in patent US20230364084A1, “METHODS FOR PREVENTING OR TREATING CONDITIONS RELATED TO PIKFYVE ACTIVITY” (The Regents of the University of Michigan, priority 2020, published 2023).

Legend:
[1] = system: Myc-CaP cells; test: long-term survival assay in Myc-CaP cells; type: cell-based, mouse
Description: Single cell suspensions were seeded into 96-well plates at a density of 1,000-30,000 cells per well. Long-term survival was determined after 14 days of drug incubation. Viable cells were fixed with 4% formaldehyde and subsequently stained with 1% crystal violet. IC50 was calculated using GraphPad Prism.

[2] = system: invasive prostate cancer cell lines; test: Matrigel invasion assay; type: cell-based, human; conditions: four invasive prostate cancer cell lines, 24-hour incubation
Description: 2-5×10^5 cells were seeded onto 8-μm Matrigel-coated fluoroblok transwells with serum-free medium and various concentrations of ESK981. Medium containing 10% FBS in the lower chamber served as a chemoattractant. After 24-hour incubation, invaded cells were stained with […] at 37° C., and fluorescence intensity was quantified with a TECAN M1000 plate reader.

[3] = system: castration-resistant VCaP tumors; test: castration-resistant VCaP xenograft mouse model; type: in vivo; conditions: 30 or 60 mg/kg
Description: Four- to six-week old male CB17 severe combined immunodeficiency (SCID) mice were procured from the University of Michigan breeding colony. Subcutaneous tumors were established at both sides of the dorsal flank of mice. Tumors were measured at least biweekly using digital calipers following the formula (π/6) (L×W2), where L=length and W=width of the tumor. At the end of the studies, mice were sacrificed and tumors extracted and weighed. The University of Michigan University Committee on the Use and Care of Animals (UCUCA) approved all in vivo studies. For the VCaP castration-resistant tumor model, 3×10^6 VCaP cells were injected subcutaneously into the dorsal flank on both sides of the mice in serum-free medium with 50% Matrigel (BD Biosciences). Once tumors reached a palpable stage (˜200 mm^3), tumor-bearing mice were castrated. Once tumors grew back to the pre-castration size, mice were randomized and treated with either 30 mg/kg, 60 mg/kg ESK981, or vehicle (ORA-PLUS) by oral gavage 5 days per week. For the DU145 xenograft tumor model, 1×10^6 DU145 cells were injected subcutaneously into the dorsal flank on both sides of the mice in serum-free medium with 50% Matrigel. When tumors reached ˜100 mm^3, tumor-bearing mice were randomized and treated with 30 mg/kg ESK981 or vehicle (ORA-PLUS) by oral gavage 5 days per week.

[4] = system: MDA-PCa-146-12 AR-positive PDX; test: MDA-PCa-146-12 patient-derived xenograft; type: in vivo, mouse; conditions: 30 mg/kg
Description: The University of Texas M.D. Anderson Cancer Center (MDACC) patient-derived xenografts (PDX) series has been previously described^62-64. PDXs were derived from men with CRPC undergoing palliative resections using described protocols^65,66. MDA-PCa-146-12 and 146-10 PDX were derived from a patient initially diagnosed with Gleason 3+4=7 prostate adenocarcinoma with an initial PSA of 10.7 ng/ml. […] PDXs were maintained in male SCID mice by surgically implanting 2 mm^3 tumors coated with 100% Matrigel to both flanks of mice. Once tumors reached 100-200 mm^3 in size, mice were randomized and divided into different treatment groups receiving either 30 mg/kg ESK981 or vehicle (ORA-PLUS) by oral gavage 5 days per week.

[5] = system: LC3-II in prostate cancer cell lines; test: LC3 lipidation western blot; type: cell-based, human
Description: Cell lysates were harvested in Pierce RIPA Lysis buffer (Thermo Scientific) containing protease inhibitor cocktail tablets (Roche) and phosphatase inhibitor cocktail (Millipore). Protein concentration was measured using the DC Protein Assay (Bio-Rad) to ensure an equal amount of protein was loaded onto a gel. The denatured lysates were separated on NuPage 4-12% Bis-Tris Midi Protein gels (Novex) and transferred to 0.45-μm PVDF transfer membrane (Immobilon) using a TransBlot Turbo dry transfer machine (Bio-Rad). The membrane was incubated in blocking buffer (5% non-fat dry milk, Tris-buffered saline with 0.1% Tween 20) for 1 hour at room temperature. The membrane was then incubated with the listed antibodies for 1 hour at room temperature, followed by overnight incubation at 4° C. Chemiluminescent detection using ECL Prime (Amersham) and HyBlot CL autoradiography film (Denville Scientific) was used to visualize the blots. Antibodies used in the immunoblotting assays were against ATG5 (Cat No. 12994S, Cell Signaling Technology), ATG7 (Cat No. 8558S, Cell Signaling Technology), ULK1 (Cat No. 8054S, Cell Signaling Technology), Beclin1 (Cat No. 4122S, Cell Signaling Technology), FIP200 (Cat No. 12436S, Cell Signaling Technology), LC3A/B (Cat No. 127415, Cell Signaling Technology), PIKfyve (Cat No. AF7885, R&D Systems), and GAPDH (Cat No. 3683S, Cell Signaling Technology).

[6] = system: Atg8; test: yeast autophagy detection (Atg8 immunoblot); type: cell-based; conditions: drug permeable yeast strain (prd5Δ), 3 μM, nitrogen deprivation
Description: The yeast strains used in this study were YAB499 (SEY6210, pho13Δ pho8Δ60, pdr5Δ::Kan). Protein extraction and immunoblot were performed as previously described^59. Antisera to Atg8 and Pgk1 (a generous gift from Dr. Jeremy Thorner, University of California, Berkeley) were used as previously described. Cells were treated with either 3 μM ESK981, 3 μM cabozantinib, or the equivalent amount of DMSO as control for the indicated times.

[7] = system: lysosomes in VCaP, LNCaP, PC3 and DU145 cells; test: LysoTracker Green flow cytometry; type: cell-based, human; conditions: four prostate cancer cell lines, 24 hours, increasing concentrations
Description: Cells were grown in 6-well plates and treated with various drugs. After 24 hours, cells were stained with LysoTracker® Green DND-26 (Invitrogen), and green fluorescence signal was analyzed by flow cytometry.

[8] = system: mouse embryonic fibroblast (MEF) cells; test: vacuolization and LC3 lipidation in Atg5 wild-type and knockout MEF cells; type: cell-based; conditions: 300 nM, 24 hours
[9] = system: VCaP cells; test: human cytokine array of conditioned medium; type: cell-based; conditions: VCaP conditioned media, 300 nM, 24 hours
Description: Cells were seeded in 6-well plates, and conditioned medium was collected after 24 hours of drug incubation. Cytokine expression was determined by proteome profiler mouse XL cytokine array (Cat No. ARY028, R&D System) or proteome profiler human XL cytokine array kit (Cat No. ARY022, R&D System) according to the manufacturer's instructions.

[10] = molecular target: VEGFR-1 (FLT1) (Homo sapiens, UniProt P17948); conditions: cited from earlier work
Chain of VEGFR-1 (FLT1) (P17948 27-1338, species assumed): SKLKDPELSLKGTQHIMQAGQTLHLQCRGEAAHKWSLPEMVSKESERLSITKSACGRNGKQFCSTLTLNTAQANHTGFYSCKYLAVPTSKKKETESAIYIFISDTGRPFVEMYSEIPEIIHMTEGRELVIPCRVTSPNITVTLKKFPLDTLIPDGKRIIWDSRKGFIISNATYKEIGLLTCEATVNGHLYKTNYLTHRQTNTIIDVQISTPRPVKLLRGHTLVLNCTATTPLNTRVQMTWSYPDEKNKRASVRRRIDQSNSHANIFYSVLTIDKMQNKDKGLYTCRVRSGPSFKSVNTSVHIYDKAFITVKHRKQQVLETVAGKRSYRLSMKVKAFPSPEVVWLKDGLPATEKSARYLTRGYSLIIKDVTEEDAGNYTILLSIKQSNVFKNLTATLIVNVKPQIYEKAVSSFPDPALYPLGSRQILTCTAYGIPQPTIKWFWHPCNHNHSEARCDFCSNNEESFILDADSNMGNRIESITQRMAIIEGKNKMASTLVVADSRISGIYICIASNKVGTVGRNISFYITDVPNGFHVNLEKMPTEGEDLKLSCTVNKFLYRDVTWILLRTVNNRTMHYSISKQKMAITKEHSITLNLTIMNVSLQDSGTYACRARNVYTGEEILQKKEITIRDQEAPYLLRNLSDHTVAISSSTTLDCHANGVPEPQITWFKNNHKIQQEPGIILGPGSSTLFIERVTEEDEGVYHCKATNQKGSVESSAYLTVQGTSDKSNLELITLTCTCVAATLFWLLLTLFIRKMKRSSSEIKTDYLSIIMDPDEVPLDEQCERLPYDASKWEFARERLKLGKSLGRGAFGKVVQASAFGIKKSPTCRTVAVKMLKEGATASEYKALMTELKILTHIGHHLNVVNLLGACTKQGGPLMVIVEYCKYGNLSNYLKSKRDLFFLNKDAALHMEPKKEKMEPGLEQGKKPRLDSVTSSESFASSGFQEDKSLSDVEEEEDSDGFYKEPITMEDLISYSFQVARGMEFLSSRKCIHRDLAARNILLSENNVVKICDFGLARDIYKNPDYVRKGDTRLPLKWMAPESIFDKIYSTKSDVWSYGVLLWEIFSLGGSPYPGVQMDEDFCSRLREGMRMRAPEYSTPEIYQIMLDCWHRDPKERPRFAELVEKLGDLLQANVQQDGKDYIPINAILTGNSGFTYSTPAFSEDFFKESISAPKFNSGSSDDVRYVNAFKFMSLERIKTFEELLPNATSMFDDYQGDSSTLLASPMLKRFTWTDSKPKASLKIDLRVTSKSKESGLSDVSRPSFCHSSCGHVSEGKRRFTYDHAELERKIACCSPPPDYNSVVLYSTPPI

## CC(C)Cn1c2ccc(Nc3ncccn3)cc2c2c3c(c4c(c21)CCc1nn(C)cc1-4)C(=O)NC3 [ESK981, 13-isobutyl-4-methyl-10-(pyrimidin-2-ylamino)-1,2,4,7,8,13-hexahydro-6H-indazolo[5,4-a]pyrrolo[3,4-c]carbazol-6-one]
[1]
  efficacy compared with crizotinib and cabozantinib: most efficacious compound
[1]; Mus musculus, read-out: growth inhibitory IC50
  IC50: 35 nM
[2]
  invasion: inhibited invasion in a dose-dependent manner
[3]; five days of treatment
  cell proliferation by Ki67 IHC: dose-dependent reductions
[3]; oral gavage
  tumor weights: dose-dependent reductions
[3]; oral gavage, castrated SCID mice, vs vehicle
  tumor growth of VCaP xenografts: significant dose-dependent growth inhibiton
[4]
  tumor weights: significant decreases in tumor weights
[4]; oral gavage 5 days per week, SCID mice
  tumor growth: Significant inhibition of tumor growth
[5]; VCaP cells, 300 nM
  time to evidence of increase in LC3-II: within three hours
[5]; numerous prostate cancer cell lines, 24 hours, dose-dependent
  total level of LC3 lipidation: increase in the total level of LC3 lipidation
[6]
  lipidated Atg8: increase in lipidated Atg8
[7]
  lysosome quantity (LysoTracker Green): Increased ESK981 lysosome quantity was observed in a dose-dependent manner
[8]; Atg5 knockout MEFs
  LC3 lipidation: abolished
[8]; autophagy-deficient Atg5−/− MEFs
  vacuolization: largely attenuated
[8]; wild-type MEF cells
  vacuolization: significantly induced
[9]
  cytokines induced (array of 105 cytokines): significantly induced only CXCL10 and, to a lesser extent, CCL2
[10]
  activity against kinase: potent activity
